In paper PMC7582767, “Protective Effect of CXCR4 Antagonist CX807 in a Rat Model of Hemorrhagic Stroke” (International Journal of Molecular Sciences, 2020):

Molecular target: T1, CXCR4 (C-X-C chemokine receptor type 4) (Homo sapiens, UniProt P61073)
T1 construct: purified membrane fractions of HEK293 cells overexpressing CXCR4
Test: […]CXCL12 radioligand displacement on CXCR4 membranes
Format: binding

T1 sequence (P61073 whole entry): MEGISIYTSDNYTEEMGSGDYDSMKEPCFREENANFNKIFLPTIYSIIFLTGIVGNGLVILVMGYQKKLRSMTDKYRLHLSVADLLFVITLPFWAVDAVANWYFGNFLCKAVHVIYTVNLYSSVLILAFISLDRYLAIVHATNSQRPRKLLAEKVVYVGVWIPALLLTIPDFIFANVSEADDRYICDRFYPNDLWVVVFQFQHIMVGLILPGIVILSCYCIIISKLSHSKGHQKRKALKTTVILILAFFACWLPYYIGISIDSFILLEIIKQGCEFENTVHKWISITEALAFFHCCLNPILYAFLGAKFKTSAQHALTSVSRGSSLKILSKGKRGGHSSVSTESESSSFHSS

- IC50: 65.4 ± 11.8 nM
SMILES: Cc1cc(NC2CCN(C(=O)CCNCC(=O)O)CC2)nc(NCc2nc(CCCNCCCNC3CCCCC3)co2)n1 [CX807]
